Measured values from patent US20230057979A1, “MEDICINAL COMPOSITIONS FOR CARBON DIOXIDE BASED METERED DOSE INHALERS” (KINDEVA DRUG DELIVERY L.P., priority 2020, published 2023).
One block for each molecule: values may come before it.

How the values were obtained:
[1] = stated in description, cited from earlier work
[2] = Beclomethasone Dipropionate (BDP) Aerodynamic Particle Size Distribution (APSD) by NGI; type: physicochemical; settings: Example 6 formulation, NGI 30 L/min, five actuations, average of three canisters
Description: APSD was determined using a Next Generation Impactor (NGI Model 170, Copley Scientific Limited UK) at a flow rate of 30±0.5 L/min drawn using a high-capacity pump (HCP5, Copley Scientific Limited, UK) the flow rate determined using a digital flow meter (Model 4043, TSI Instruments). The filter stage was fitted with a Whatman grade 934-AH glass microfiber filter. Units were tested at the start of life using a 3M Mark 6 actuator (3M, Loughborough, UK) with an exit orifice diameter of 0.25 mm and a jet length of 0.8 mm. Prior to testing, the inhaler was actuated five times to ensure the valve was primed after which the valve stem was cleaned and dried. The inhaler was then attached to the NGI with the use of an appropriate coupler and actuated five times into the NGI. The BDP was recovered from each component using methanol (HPLC grade, Thermo Fisher Scientific, Inc., Waltham, Mass.) using a volume of 10 mL for the stem/can, 30 mL for the throat/coupler, 5 mL for cups 1 to 4 and 20 mL for all other components. Recovery was performed using a rocker station (Gentle Rocker 4515, Copley Scientific Limited UK). Samples were assayed by reversed phase isocratic liquid chromatography using UV detection (Acquity H-Class UPLC, Waters Limited) with the parameter settings presented in Table 1. [table]

[3] = Salbutamol Sulphate Aerodynamic Particle Size Distribution (APSD) by NGI; type: physicochemical; settings: Example 7 formulation, NGI 30 L/min, six actuations, average of three canisters
Description: APSD was determined using a Next Generation Impactor as described in the BDP APSD test method. Prior to testing, the inhaler was actuated five times to ensure the valve was primed after which the valve stem was cleaned and dried. The inhaler was then attached to the NGI with the use of an appropriate coupler and actuated six times into the NGI. The Salbutamol sulphate was recovered from each component using a solution of acetonitrile/0.1% phosphoric acid in water (9:1 v/v) using a volume of 20 mL for the throat/coupler and 10 mL for all other components. Recovery was performed using a rocker station (Gentle Rocker, Copley Scientific Limited UK). Samples were assayed by reversed phase gradient liquid chromatography using UV detection (HP1100, Agilent Technologies UK Limited), with the parameter settings in Table 2 and Table 3. [table] [table]

Molecule: O=C=O [carbon dioxide]
vapor pressure at about 20° C. ([1]; pure liquid propellant, about 20 °C): about 57 bar
vapor pressure at about 40° C. ([1]; pure liquid propellant, about 40 °C): about 80 bar
liquid to supercritical phase transition temperature or critical point temperature ([1]; pure propellant): about 31 °C

BDP deposited: Actuator [2]: 10.8 µg
BDP deposited: Cup 1 [2]: 0.3 µg
BDP deposited: Cup 2 [2]: 0.1 µg
BDP deposited: Cup 3 [2]: 0.1 µg
BDP deposited: Cup 4 [2]: 0.8 µg
BDP deposited: Cup 5 [2]: 4.3 µg
BDP deposited: Cup 6 [2]: 7.4 µg
BDP deposited: Cup 7 [2]: 4.7 µg
BDP deposited: Filter [2]: 1.6 µg
BDP deposited: MOC [2]: 5.9 µg
BDP deposited: Stem [2]: 3.6 µg
BDP deposited: Throat/Coupler [2]: 59.0 µg
Molecule: CCC(=O)OCC(=O)[C@@]1(OC(=O)CC)[C@@H](C)C[C@H]2[C@@H]3CCC4=CC(=O)C=C[C@]4(C)[C@@]3(Cl)[C@@H](O)C[C@@]21C [BDP, beclomethasone dipropionate]

SS deposited: Actuator [3]: 7.9 µg
SS deposited: Cup 1 [3]: 0.20 µg
SS deposited: Cup 2 [3]: 0.07 µg
SS deposited: Cup 3 [3]: 0.45 µg
SS deposited: Cup 4 [3]: 2.5 µg
SS deposited: Cup 5 [3]: 3.7 µg
SS deposited: Cup 6 [3]: 2.1 µg
SS deposited: Cup 7 [3]: 0.60 µg
SS deposited: Filter [3]: 0.05 µg
SS deposited: MOC [3]: 0.29 µg
SS deposited: Stem [3]: 1.4 µg
SS deposited: Throat/Coupler [3]: 54.2 µg
Molecule: salbutamol sulphate [SS]
